From the supplement of paper PMC13380429

Key:
Settings in all cases: 72 h
Caco-2 [1] = experiment: cell viability relative to DMSO; higher = less toxic
HepG2 [2] = experiment: as above
Vero E6 [3] = experiment: as above
Calu-3 [4] = experiment: as above
Caco-2 [5] = experiment: relative viability EC50 (midpoint between 100% and the lowest measured viability); higher = less toxic
HepG2 [6] = experiment: as above
Vero E6 [7] = experiment: as above
Caco-2 [8] = experiment: drug sensitivity score (DSS) for viability; higher = more toxic; extreme values may be limits of the assay
HepG2 [9] = experiment: as above
Vero E6 [10] = experiment: as above
Calu-3 [11] = experiment: as above
U2OS [12] = experiment: cell viability relative to DMSO; higher = less toxic
U2OS [13] = experiment: relative viability EC50 (midpoint between 100% and the lowest measured viability); higher = less toxic
Calu-3 [14] = experiment: as above
U2OS [15] = experiment: drug sensitivity score (DSS) for viability; higher = more toxic; extreme values may be limits of the assay

SMILES | cell viability (Caco-2 [1]; 1 nM) [%] | cell viability (Caco-2 [1]; 10 nM) [%] | cell viability (Caco-2 [1]; 100 nM) [%] | cell viability (Caco-2 [1]; 1000 nM) [%] | cell viability (Caco-2 [1]; 10000 nM) [%] | cell viability (HepG2 [2]; 1 nM) [%] | cell viability (HepG2 [2]; 10 nM) [%] | cell viability (HepG2 [2]; 100 nM) [%] | cell viability (HepG2 [2]; 1000 nM) [%] | cell viability (HepG2 [2]; 10000 nM) [%] | cell viability (Vero E6 [3]; 1 nM) [%] | cell viability (Vero E6 [3]; 10 nM) [%] | cell viability (Vero E6 [3]; 100 nM) [%] | cell viability (Vero E6 [3]; 1000 nM) [%] | cell viability (Vero E6 [3]; 10000 nM) [%] | cell viability (Calu-3 [4]; 1 nM) [%] | cell viability (Calu-3 [4]; 10 nM) [%] | cell viability (Calu-3 [4]; 100 nM) [%] | cell viability (Calu-3 [4]; 1000 nM) [%] | cell viability (Calu-3 [4]; 10000 nM) [%] | relative viability EC50 (Caco-2 [5]) [µM] | relative viability EC50 (HepG2 [6]) [nM] | relative viability EC50 (Vero E6 [7]) [µM] | drug sensitivity score (Caco-2 [8]) | drug sensitivity score (HepG2 [9]) | drug sensitivity score (Vero E6 [10]) | drug sensitivity score (Calu-3 [11]) | cell viability (U2OS [12]; 1 nM) [%] | cell viability (U2OS [12]; 10 nM) [%] | cell viability (U2OS [12]; 100 nM) [%] | cell viability (U2OS [12]; 1000 nM) [%] | cell viability (U2OS [12]; 10000 nM) [%] | relative viability EC50 (U2OS [13]) [µM] | relative viability EC50 (Calu-3 [14]) [µM] | drug sensitivity score (U2OS [15])
CCOC(=O)N1c2ccc(C(F)(F)F)cc2[C@@H](N(Cc2cc(C(F)(F)F)cc(C(F)(F)F)c2)C(=O)OC)C[C@H]1CC | 108 | 108 | 100 | 101 | 87.2 | 99.3 | 106 | 94.3 | 93.6 | 75.5 | 98.3 | 99.1 | 96.2 | 98.4 | 85.2 | 96.4 | 98.9 | 98.4 | 86 | 69 | > 10 | > 10000 | > 10 | 0.1 | 1.5 | 0.4 | 2.8 | – | – | – | – | – | – | – | –
CNC(=O)c1c(F)cccc1Nc1nc(Nc2cc3c(cc2OC)CCN3C(=O)CN(C)C)nc2[nH]ccc12 | 103 | 93.4 | 92.3 | 85.7 | 52.8 | 100 | 101 | 77.3 | 53 | 56.5 | 101 | 97 | 94.1 | 93.4 | 101 | 99.4 | 104 | 103 | 95.1 | 91.3 | – | – | > 10 | 4.1 | 11.5 | 0 | 0 | 97.7 | 98.9 | 100 | 87.9 | 78.5 | > 10 | > 10 | 2
COc1ccc(-n2[nH]c3c4c(ncc3c2=O)CCCCC4)cc1 | 99.9 | 107 | 95.7 | 107 | 94.2 | – | – | – | – | – | 102 | 105 | 100 | 98.2 | 99.6 | 110 | 98.7 | 99.8 | 97.2 | 112 | > 10 | – | > 10 | 0 | – | 0 | 0 | 96.4 | 100 | 94.2 | 103 | 95.9 | > 10 | > 10 | 0
COc1cccc(-c2cc(=O)c3ccccc3o2)c1N | 98.5 | 108 | 92.7 | 95.9 | 91.4 | 99.7 | 87.8 | 94.1 | 91.8 | 64.2 | 109 | 108 | 105 | 104 | 92 | 107 | 103 | 103 | 106 | 83.7 | > 10 | – | > 10 | 0 | 2.9 | 0 | 0.2 | 99.5 | 97.7 | 98.7 | 101 | 92 | > 10 | > 10 | 0
COc1ccccc1N1CCN(CCN(C(=O)C2CCCCC2)c2ccccn2)CC1 | 99.1 | 101 | 93.5 | 102 | 94 | – | – | – | – | – | 104 | 102 | 104 | 97.2 | 99.1 | 93.6 | 86.7 | 99 | 92.2 | 84.3 | > 10 | – | > 10 | 0 | – | 0 | 0 | 95.6 | 99.6 | 102 | 100 | 95.5 | > 10 | > 10 | 0
Cc1cc(C)c(N(Cc2ccccc2)S(=O)(=O)c2ccc(OCCNC(=O)c3cc4ccccc4o3)cc2)c(C(=O)NO)c1 | 94.1 | 101 | 105 | 88.8 | 42 | 93.4 | 98.9 | 91 | 94.5 | 37.8 | 105 | 107 | 105 | 104 | 47 | 95.2 | 103 | 96.9 | 99.4 | 73.4 | 1.77 | 2430 | 3.55 | 5 | 4.3 | 2.5 | 1.1 | 104 | 96.3 | 100 | 98.5 | 63.9 | – | – | 1.9
Cc1cc(CN2CCN(c3c(Br)cnc4nc(-c5ccc(N6CCN(C)CC6)cc5)[nH]c34)CC2)no1 | 101 | 99.3 | 99.7 | 96.8 | 84.7 | 101 | 98 | 106 | 65.6 | 59.9 | 96 | 96.6 | 94.1 | 83.6 | 84.2 | 97.8 | 103 | 94.2 | 114 | 105 | > 10 | – | > 10 | 0.6 | 6 | 1.5 | 0 | 98.7 | 106 | 98.1 | 102 | 74.8 | – | > 10 | 0.8
Fc1ccc(C(OCCN2CCN(C/C=C/c3ccccc3)CC2)c2ccc(F)cc2)cc1 | 102 | 100 | 104 | 94.2 | 83.5 | 87.6 | 101 | 101 | 96.2 | 72.1 | 99.6 | 106 | 101 | 96 | 86.7 | 97.8 | 106 | 110 | 99.7 | 95.3 | > 10 | – | > 10 | 0.9 | 1.8 | 0.4 | 0 | 103 | 100 | 103 | 98.4 | 94.8 | > 10 | > 10 | 0
O=C(Nc1ccncc1)c1cc([N+](=O)[O-])ccc1Cl | 102 | 86.1 | 97.9 | 96.3 | 85.5 | 103 | 91.3 | 105 | 86 | 99.4 | 102 | 97.3 | 89.4 | 88 | 93.1 | – | – | – | – | – | > 10 | > 10000 | > 10 | 0 | 0 | 0.9 | – | 99.5 | 104 | 99.7 | 106 | 93.2 | > 10 | – | 0
Cc1sc2c(c1C)C(c1ccc(Cl)cc1)=N[C@@H](CC(=O)Nc1ccc(OCCOCCOCCOCCNc3cccc4c3C(=O)N(C3CCC(=O)NC3=O)C4=O)cc1)c1nnc(C)n1-2 (stereo partly drawn) [ARV-825] | 91.4 | 92.6 | 90.1 | 44 | 51.7 | 95.4 | 103 | 89.9 | 40.5 | 25.2 | 94.6 | 105 | 91 | 76.3 | 11 | 95.1 | 91.4 | 111 | 72 | 62.9 | 0.184 | 381 | 1.55 | 12 | 12.3 | 8.3 | 5 | 95.4 | 93.6 | 96.9 | 51 | 31.7 | 0.577 | – | 9.9
CC1(C)C[C@@H]1C(=O)N/C(=C\CCCCSC[C@H](N)C(=O)O)C(=O)O [Cilastatin Sodium] | 101 | 107 | 105 | 99 | 102 | 108 | 102 | 95.4 | 87.7 | 96.5 | 104 | 102 | 99.2 | 99.8 | 94.3 | – | – | – | – | – | > 10 | > 10000 | > 10 | 0 | 0.9 | 0 | – | 97.4 | 100 | 95.9 | 102 | 97.6 | > 10 | – | 0
O=C1C=CC(=O)C2=C1C1c3ccccc3C2c2ccccc21 [INCA-6] | 97.5 | 93.5 | 94.5 | 96.6 | 90.1 | 102 | 112 | 96.8 | 106 | 68.5 | 93.3 | 96.7 | 87 | 96.1 | 105 | 98.2 | 99.3 | 96.7 | 95.7 | 104 | > 10 | – | > 10 | 0 | 1.1 | 0 | 0 | 98 | 93.7 | 98.2 | 97.5 | 88.2 | > 10 | > 10 | 0
Cc1nn(C)c2nc(NNC(=O)Nc3cc(Cl)nc(Cl)c3)cc(C(C)C)c12 [JTE-013] | 96.7 | 100 | 105 | 100 | 82.4 | 97.8 | 93.1 | 104 | 95.6 | 74.2 | 99.1 | 105 | 95.7 | 100 | 93.9 | 101 | 101 | 97.5 | 110 | 92 | > 10 | – | > 10 | 0.4 | 1.7 | 0 | 0 | 107 | 100 | 99.4 | 93.6 | 92.9 | > 10 | > 10 | 0
C[C@@H](NC(=O)c1ncnc(N)c1Cl)c1ncc(C(=O)Nc2cc(C(F)(F)F)c(Cl)cn2)s1 [MLN2480] | 101 | 96.4 | 103 | 103 | 91.5 | 102 | 102 | 101 | 91.9 | 57 | 95.4 | 104 | 111 | 108 | 108 | – | – | – | – | – | > 10 | – | > 10 | 0 | 3.5 | 0 | – | 102 | 101 | 103 | 102 | 95.4 | > 10 | – | 0
Cc1ccc(S(=O)(=O)Nc2ccc3c(c2)c(C(=O)C(F)(F)F)cn3CC(=O)N[C@@H](CC(C)C)C(=O)O)cc1 [NTRC-824] | 94.7 | 103 | 95 | 102 | 89.7 | – | – | – | – | – | 96.9 | 98.1 | 100 | 94.7 | 95.4 | 88.4 | 101 | 94.2 | 102 | 93.5 | > 10 | – | > 10 | 0 | – | 0 | 0 | 102 | 109 | 102 | 102 | 95.3 | > 10 | > 10 | 0
